Data taken from patent US12371454B2, “Cyclic peptide compound having Kras inhibitory action” (priority 2019, dated 2025).
Starred links: 1 amine or outer side, 2 acyl side, 3 side chain; linkers in the order of their positions; H or OH if unused. Positions of bridges follow the written chain, without caps; N, C: chain ends. Non-standard residues stand in square brackets, D forms with d. Residues, ends and D or L forms follow the SMILES beside them. *: point of attachment. hPhe(3,5-F2-4-CF3) = N[C@@H](CCc1cc(F)c(C(F)(F)F)c(F)c1)C(=O)O; hPhe(3-Cl-4-CF3) = N[C@@H](CCc1ccc(C(F)(F)F)c(Cl)c1)C(=O)O; hPhe(3-F,4-CF3) = N[C@@H](CCc1ccc(C(F)(F)F)c(F)c1)C(=O)O; NMePhe(4-CF3) = CN[C@@H](Cc1ccc(C(F)(F)F)cc1)C(=O)O; NMePhe(4-Cl) = CN[C@@H](Cc1ccc(Cl)cc1)C(=O)O; NMedβ3hAla = C[C@H](CC(=O)[*:2])N(C)[*:1]; NMeGly(cPent) = CN[C@H](C(=O)O)C1CCCC1; Pro(4,4-F2) = O=C(O)[C@@H]1CC(F)(F)CN1; NMeAla(cPr) = CN[C@@H](CC1CC1)C(=O)O; NMeCha = CN[C@@H](CC1CCCCC1)C(=O)O; Gly(N-(CH2)2OEt) = CCOCCNCC(=O)O; NMeChg = CN[C@H](C(=O)O)C1CCCCC1; NMeI = CC[C@H](C)[C@H](NC)C(=O)O; d(β3hL) = CC(C)C[C@@H](N)CC(=O)O; NMeD = CN[C@@H](CC(=O)O)C(=O)O; NMeL = CN[C@@H](CC(C)C)C(=O)O; NMeV = CN[C@H](C(=O)O)C(C)C; d(β3hA) = C[C@@H](N)CC(=O)O; Azetidin(1-yl) = C1CN(*)C1; NMeS = CN[C@@H](CO)C(=O)O; Morpholide = C1CN(*)CCO1; NMeA = CN[C@@H](C)C(=O)O; Piperidide = C1CCN(*)CC1; Pyrrolidide = C1CCN(*)C1; Ac5c = NC1(C(=O)O)CCCC1; Aze = O=C(O)[C@@H]1CCN1; CH2CMe2OH = CC(C)(O)C*; Cyclobutyl = C1CC(*)C1; Aib = CC(C)(N)C(=O)O; NEtG = CCNCC(=O)O; Sar = CNCC(=O)O; Propyl = CCC*

tested on: Human pancreatic cancer cell line AsPC-1; assay: Measurement of AsPC-1 cell growth inhibition (AsPC-1 CGI); type: cell-based; conditions: 96 h
Outline: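 AsPC-1 cells in 15% FBS RPMI-1640 were exposed to test compound for 96 hours at 37° C, with CellTiter-Glo as endpoint.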

Row | Structure (SMILES) | IC50
1 | CC[C@H](C)[C@@H]1NC(=O)[C@H](CC(C)C)N(C)C(=O)C[C@@H](C(=O)N2CCCC2)NC(=O)[C@H](C2CCCC2)N(C)C(=O)C2(CCCC2)NC(=O)[C@@H]2CCCN2C(=O)[C@H](CCc2ccc(C(F)(F)F)c(Cl)c2)NC(=O)CN(C)C(=O)[C@H](CC2CCCCC2)N(C)C(=O)[C@@H]2CCN2C(=O)[C@H](C)N(C)C1=O [Compound 700] ([NMeL]I[NMeA][Aze][NMeCha][Sar][hPhe(3-Cl-4-CF3)]P[Ac5c][NMeGly(cPent)]D-Pyrrolidide; lactam N-11) | 100 to 500 nM
2 | CC[C@H](C)[C@@H]1NC(=O)[C@H](CC(C)C)N(C)C(=O)C[C@@H](C(=O)N2CCC2)N(C)C(=O)[C@H](C2CCCC2)N(C)C(=O)C2(CCCC2)NC(=O)[C@@H]2CCCN2C(=O)[C@H](CCc2ccc(C(F)(F)F)c(Cl)c2)NC(=O)CN(CC)C(=O)[C@H](CC2CCCCC2)N(C)C(=O)[C@@H]2CCN2C(=O)[C@H](C)N(C)C1=O [Compound 726] ([NMeL]I[NMeA][Aze][NMeCha][NEtG][hPhe(3-Cl-4-CF3)]P[Ac5c][NMeGly(cPent)][NMeD]-{Azetidin(1-yl)}; lactam N-11) | 20 to 50 nM
3 | CC[C@H](C)[C@@H]1NC(=O)[C@H](C(C)C)N(C)C(=O)C[C@@H](C)NC(=O)[C@H](CC(C)C)N(C)C(=O)C(C)(C)NC(=O)[C@H](CC(C)C)N(C)C(=O)[C@H](CCc2ccc(C(F)(F)F)c(Cl)c2)NC(=O)CN(C)C(=O)[C@H](Cc2ccc(Cl)cc2)N(C)C(=O)CN(C)C(=O)CN(C)C1=O [Compound 740] (cyclo([Aib][NMeL][d(β3hA)][NMeV]I[Sar][Sar][NMePhe(4-Cl)][Sar][hPhe(3-Cl-4-CF3)][NMeL])) | 100 to 500 nM
4 | CC[C@H](C)[C@@H]1NC(=O)[C@H](C)N(C)C(=O)C[C@@H](C)NC(=O)[C@H](C2CCCC2)N(C)C(=O)C2(CCCC2)NC(=O)[C@@H]2CCCN2C(=O)[C@H](CCc2ccc(C(F)(F)F)c(Cl)c2)NC(=O)CN(C)C(=O)[C@H](Cc2ccc(C(F)(F)F)cc2)N(C)C(=O)[C@@H]2CCCN2C(=O)CN(C)C1=O [Compound 749] (cyclo([Ac5c][NMeGly(cPent)][d(β3hA)][NMeA]I[Sar]P[NMePhe(4-CF3)][Sar][hPhe(3-Cl-4-CF3)]P)) | 100 to 500 nM
5 | CC[C@H](C)[C@@H]1NC(=O)[C@H](COC2CCC2)N(C)C(=O)C[C@@H](C(=O)N2CCCCC2)N(C)C(=O)[C@H](C(C)C)N(C)C(=O)C2(CCCC2)NC(=O)[C@@H]2CCCN2C(=O)[C@H](CCc2ccc(C(F)(F)F)c(Cl)c2)NC(=O)CN(C)C(=O)[C@H](CC2CCCCC2)N(C)C(=O)[C@@H]2CCN2C(=O)[C@H](C)N(C)C1=O [Compound 755] ([NMeS](Cyclobutyl)I[NMeA][Aze][NMeCha][Sar][hPhe(3-Cl-4-CF3)]P[Ac5c][NMeV][NMeD]-Piperidide; lactam N-11) | 100 to 500 nM
6 | CC[C@H](C)[C@@H]1NC(=O)[C@H](CC2CC2)N(C)C(=O)C[C@@H](C)NC(=O)[C@H](C(C)C)N(C)C(=O)C2(CCCC2)NC(=O)[C@@H]2CCCN2C(=O)[C@H](CCc2ccc(C(F)(F)F)c(Cl)c2)NC(=O)CN(C)C(=O)[C@H](CC2CCCCC2)N(C)C(=O)[C@@H]2CCN2C(=O)[C@H](C)N(C)C1=O [Compound 771] (cyclo([Ac5c][NMeV][d(β3hA)][NMeAla(cPr)]I[NMeA][Aze][NMeCha][Sar][hPhe(3-Cl-4-CF3)]P)) | 100 to 500 nM
7 | CCCOC[C@H]1C(=O)N(C)CC(=O)N[C@@H](CCc2ccc(C(F)(F)F)c(F)c2)C(=O)N2CCC[C@H]2C(=O)NC2(CCCC2)C(=O)N(C)[C@@H](C2CCCC2)C(=O)N(C)[C@H](C)CC(=O)N(C)[C@@H](CC(C)C)C(=O)N[C@@H]([C@@H](C)CC)C(=O)N(C)[C@@H](C)C(=O)N2CC[C@H]2C(=O)N1C [Compound 776] (cyclo([Ac5c][NMeGly(cPent)][NMedβ3hAla][NMeL]I[NMeA][Aze][NMeS](Propyl)[Sar][hPhe(3-F,4-CF3)]P)) | 20 to 50 nM
8 | CC[C@H](C)[C@@H]1NC(=O)[C@H](CC(C)C)N(C)C(=O)C[C@@H](C(=O)N2CCCCC2)N(C)C(=O)[C@H](C2CCCCC2)N(C)C(=O)C2(CCCC2)NC(=O)[C@H](COCC(C)(C)O)N(C)C(=O)[C@H](CCc2ccc(C(F)(F)F)c(Cl)c2)NC(=O)CN(C)C(=O)[C@H](CC2CCCCC2)N(C)C(=O)CN(C)C(=O)CN(C)C1=O [Compound 789] ([NMeL]I[Sar][Sar][NMeCha][Sar][hPhe(3-Cl-4-CF3)][NMeS](CH2CMe2OH)[Ac5c][NMeChg][NMeD]-Piperidide; lactam N-11) | 100 to 500 nM
9 | CC[C@H](C)[C@@H]1NC(=O)[C@H](CC(C)C)N(C)C(=O)C[C@@H](C(=O)N2CCOCC2)N(C)C(=O)[C@H]([C@@H](C)CC)N(C)C(=O)C2(CCCC2)NC(=O)[C@@H]2CCCN2C(=O)[C@H](CCc2ccc(C(F)(F)F)c(F)c2)NC(=O)CN(C)C(=O)[C@H](CC2CCCCC2)N(C)C(=O)[C@@H]2CCN2C(=O)[C@H](C)N(C)C1=O [Compound 790] ([NMeL]I[NMeA][Aze][NMeCha][Sar][hPhe(3-F,4-CF3)]P[Ac5c][NMeI][NMeD]-Morpholide; lactam N-11) | 20 to 50 nM
10 | CC[C@H](C)[C@@H]1NC(=O)[C@H](CC(C)C)N(C)C(=O)C[C@@H](C(=O)N2CCCCC2)N(C)C(=O)[C@H]([C@@H](C)CC)N(C)C(=O)C2(CCCC2)NC(=O)[C@@H]2CCCN2C(=O)[C@H](CCc2ccc(C(F)(F)F)c(Cl)c2)NC(=O)CN(C)C(=O)[C@H](C2CCCC2)N(C)C(=O)[C@@H]2CCN2C(=O)[C@H](C)N(C)C1=O [Compound 807] ([NMeL]I[NMeA][Aze][NMeGly(cPent)][Sar][hPhe(3-Cl-4-CF3)]P[Ac5c][NMeI][NMeD]-Piperidide; lactam N-11) | 20 to 50 nM
11 | CCOCCN1CC(=O)NC2(CCCC2)C(=O)N(C)[C@@H](C2CCCCC2)C(=O)N(C)[C@H](C(=O)N2CCCCC2)CC(=O)N(C)[C@@H](CC(C)C)C(=O)N[C@@H]([C@@H](C)CC)C(=O)N(C)CC(=O)N(C)CC(=O)N(C)[C@@H](CC2CCCCC2)C(=O)N(C)CC(=O)N[C@@H](CCc2ccc(C(F)(F)F)c(Cl)c2)C1=O [Compound 872] ([NMeL]I[Sar][Sar][NMeCha][Sar][hPhe(3-Cl-4-CF3)][Gly(N-(CH2)2OEt)][Ac5c][NMeChg][NMeD]-Piperidide; lactam N-11) | 100 to 500 nM
12 | CC[C@H](C)[C@@H]1NC(=O)[C@H](CC(C)C)N(C)C(=O)C[C@@H](C(=O)N2CCCCC2)N(C)C(=O)[C@H]([C@@H](C)CC)N(C)C(=O)C2(CCCC2)NC(=O)[C@@H]2CCCN2C(=O)[C@H](CCc2ccc(C(F)(F)F)c(Cl)c2)NC(=O)CN(C)C(=O)[C@H](COC2CCC2)N(C)C(=O)[C@@H]2CCN2C(=O)[C@H](C)N(C)C1=O [Compound 885] ([NMeL]I[NMeA][Aze][NMeS](Cyclobutyl)[Sar][hPhe(3-Cl-4-CF3)]P[Ac5c][NMeI][NMeD]-Piperidide; lactam N-11) | 20 to 50 nM

Second part, the molecule after the results:

Row | IC50 | Structure (SMILES)
13 | 100 to 500 nM | CC[C@H](C)[C@@H]1NC(=O)[C@H](CC(C)C)N(C)C(=O)C[C@@H](CC(C)C)NC(=O)[C@H]([C@@H](C)CC)N(C)C(=O)C2(CCCC2)NC(=O)[C@@H]2CCCN2C(=O)[C@H](CCc2ccc(C(F)(F)F)c(Cl)c2)NC(=O)CN(C)C(=O)[C@H](CC2CCCCC2)N(C)C(=O)[C@@H]2CCN2C(=O)[C@H](C)N(C)C1=O [Compound 798] (cyclo([Ac5c][NMeI][d(β3hL)][NMeL]I[NMeA][Aze][NMeCha][Sar][hPhe(3-Cl-4-CF3)]P))
14 | 20 to 50 nM | CCCOC[C@H]1C(=O)N(C)CC(=O)N[C@@H](CCc2ccc(C(F)(F)F)c(F)c2)C(=O)N2CCC[C@H]2C(=O)NC2(CCCC2)C(=O)N(C)[C@@H]([C@@H](C)CC)C(=O)N(C)[C@H](C(=O)N2CCOCC2)CC(=O)N(C)[C@@H](CC(C)C)C(=O)N[C@@H]([C@@H](C)CC)C(=O)N(C)[C@@H](C)C(=O)N2CC[C@H]2C(=O)N1C [Compound 827] ([NMeL]I[NMeA][Aze][NMeS](Propyl)[Sar][hPhe(3-F,4-CF3)]P[Ac5c][NMeI][NMeD]-Morpholide; lactam N-11)
15 | 50 to 100 nM | CC[C@H](C)[C@@H]1NC(=O)[C@H](CC(C)C)N(C)C(=O)C[C@@H](C)N(C)C(=O)[C@H]([C@@H](C)CC)N(C)C(=O)C2(CCCC2)NC(=O)[C@@H]2CCCN2C(=O)[C@H](CCc2ccc(C(F)(F)F)c(F)c2)NC(=O)CN(C)C(=O)[C@H](CC2CCCCC2)N(C)C(=O)[C@@H]2CCN2C(=O)[C@H](C)N(C)C1=O [Compound 859] (cyclo([Ac5c][NMeI][NMedβ3hAla][NMeL]I[NMeA][Aze][NMeCha][Sar][hPhe(3-F,4-CF3)]P))
16 | 20 to 50 nM | CC[C@H](C)[C@@H]1NC(=O)[C@H](CC(C)C)N(C)C(=O)C[C@@H](C(=O)N2CCCC2)N(C)C(=O)[C@H]([C@@H](C)CC)N(C)C(=O)C2(CCCC2)NC(=O)[C@@H]2CCCN2C(=O)[C@H](CCc2ccc(C(F)(F)F)c(F)c2)NC(=O)CN(C)C(=O)[C@H](CC2CCCCC2)N(C)C(=O)[C@@H]2CCN2C(=O)[C@H](C)N(C)C1=O [Compound 868] ([NMeL]I[NMeA][Aze][NMeCha][Sar][hPhe(3-F,4-CF3)]P[Ac5c][NMeI][NMeD]-Pyrrolidide; lactam N-11)
17 | 100 to 500 nM | CC[C@H](C)[C@@H]1NC(=O)[C@H](C2CCCCC2)N(C)C(=O)C[C@@H](C)NC(=O)[C@H](C(C)C)N(C)C(=O)C2(CCCC2)NC(=O)[C@@H]2CCCN2C(=O)[C@H](CCc2ccc(C(F)(F)F)c(Cl)c2)NC(=O)CN(C)C(=O)[C@H](CC2CCCCC2)N(C)C(=O)[C@@H]2CCN2C(=O)[C@H](C)N(C)C1=O [Compound 873] (cyclo([Ac5c][NMeV][d(β3hA)][NMeChg]I[NMeA][Aze][NMeCha][Sar][hPhe(3-Cl-4-CF3)]P))
18 | 20 to 50 nM | CC[C@H](C)[C@@H]1NC(=O)[C@H](CC(C)C)N(C)C(=O)C[C@@H](C)N(C)C(=O)[C@H](C2CCCC2)N(C)C(=O)C2(CCCC2)NC(=O)[C@@H]2CC(F)(F)CN2C(=O)[C@H](CCc2cc(F)c(C(F)(F)F)c(F)c2)NC(=O)CN(C)C(=O)[C@H](Cc2ccc(C(F)(F)F)cc2)N(C)C(=O)[C@@H]2CCN2C(=O)[C@H](C)N(C)C1=O [Compound 900] (cyclo([Ac5c][NMeGly(cPent)][NMedβ3hAla][NMeL]I[NMeA][Aze][NMePhe(4-CF3)][Sar][hPhe(3,5-F2-4-CF3)][Pro(4,4-F2)]))
